Experiment [1] deals with T1, BCL6 protein (Homo sapiens, UniProt P41182). The experiment is described as follows: Tumor lysate BCL6 protein levels in OCI-Ly1 xenograft tumor tissue (western blotting, densitometry). The format is in vivo, mice. On the set-up: from tissue; host or cells: subcutaneous xenograft tumors of OCI-Ly1, OCI-Ly7, SU-DHL-2 or OCI-Ly10 cells in mice. The method, then:
Tumor lysate BCL6 protein levels in OCI-Ly1 cell line xenograft tumor tissue was measured following a treatment time-course with Compound A. A single dose of Compound A was orally administered in a vehicle of 40% hydroxypropyl-b-cyclodextrin in pH 3.0 citrate buffer when tumors reached 200-400 mm^3. Tumors were harvested at the indicated timepoints. Tumor tissue lysates were analyzed using western immunoblotting procedures and densitometry. BCL6 levels are normalized to a GAPDH loading control and presented as a percentage (%) of the average of BCL6 levels in the vehicle control group. Percent BCL6 degradation (%) relative to vehicle is shown above each arm. Cells (1×10^7 cells in 50% matrigel+50% RMPI-1640 (phenol red-free)/100 μl/mouse) were implanted on the right flank subcutaneously.
Mice bearing subcutaneous tumors were orally (po) administered vehicle or Compound A at 1, 3, or 10 mg/kg bi-daily for 23 days (bid×23). Dosing began with tumors at an average of 170 mm^3. […] FIG. 7C depicts tumor lysate BCL6 protein levels 16-hours post-last dose analyzed by western blotting. Individual tumor BCL6 levels are shown in a scatter plot, mean is represented by the bar, determined by densitometry, normalized to GAPDH loading controls, and shown as a percentage of vehicle. Percent BCL6 degradation (%) relative to vehicle is shown above each arm. Statistical analyses were performed using 2-way ANOVA: p<0.0001 (****). Error bars represent standard error of the mean (±SEM).

The test system of experiment [2] is DLBCL-derived cell lines. The experiment is described as follows: Nine-day cell growth inhibition assay (CellTiter-Glo). The format is cell-based. Particulars: GCB lines OCI-Ly1, OCI-Ly7, SU-DHL-4, SU-DHL-6 and ABC lines SU-DHL-2, OCI-Ly10; 9 days; top dose 30 nM; concentration dependent. The method, then: Antiproliferative effects of Compound A on DLBCL-derived cell lines were tested. Nine-day cell growth inhibition assays were conducted using GCB lines OCI-Ly1, OCI-Ly7, SU-DHL-4 and SU-DHL-6 (FIG. 3A), and ABC lines SU-DHL-2 and OCI-Ly10 (FIG. 3B) dosed with a 7-point 3-fold serial dilution of Compound A at a top dose of 30 nM. On days 3 and 6-7, samples were split to new 48-well plates for re-treatment, and 20% to a 96-well plate to measure cell viability using CellTiter-Glo (CTG). Split cells in the 48-well plates were retreated and cultured out to day 9, when 20% of each sample was analyzed by CTG. Dose response was plotted as a percentage of vehicle (DMSO) control (FIG. 3A and FIG. 3B). Graphs are representative of at least two independent proliferation assays per cell line.
On the technique in general: ATP-based viability assays read luminescence as a measure of living cells.

Experiment [3] has as its target T1, BCL6 protein. Kind of experiment: BCL6 protein degradation in DLBCL cell lines measured by ELISA. On the set-up: Degradation of BCL6 protein in DLBCL cell lines were measured by ELISA; endogenous in cells; host or cells: OCI-Ly1, Farage, SU-DHL-4, SU-DHL-6, OCI-Ly7, SU-DHL-2, OCI-Ly10. It is filed as cell-based.
Experiment [4] concerns OCI-Ly10. Kind of experiment: Tumor growth of DLBCL cell line derived xenograft model OCI-Ly10. It is filed as in vivo, mice. The conditions noted are these: po 3, 10 or 30 mg/kg bid×28 or 30 mg/kg qd×28, dosing dependent. How it is done: Mice bearing subcutaneous tumors were orally (po) administered vehicle or Compound A at 3, 10, or 30 mg/kg bi-daily for 28 days (bid×28) or 30 mg/kg daily for 28 days (qd×28). Dosing began with tumors at an average of 190 mm^3. […] FIG. 10C depicts tumor lysate BCL6 protein levels 16-hours post-last dose analyzed by western blotting. Individual tumor BCL6 levels are shown in a scatter plot, mean is represented by the bar, determined by densitometry, normalized to GAPDH loading controls, and shown as a percentage of vehicle. Percent BCL6 degradation (%) relative to vehicle is shown above each arm. Statistical analyses were performed using 2-way ANOVA: p<0.05 (*), p<0.0001 (****). Error bars represent standard error of the mean (±SEM).

Consider one compound from patent US20240335444A1, “MODULATORS OF BCL6 PROTEOLYSIS AND ASSOCIATED METHODS OF USE” (Arvinas Operations, Inc., priority 2023, published 2024).

Turning to `CNC(=O)COc1cc2cc(Nc3nc(N4CCC(O[C@H]5C[C@H](N6CCC(c7ccc8c(c7F)CN(C7CCC(=O)NC7=O)C8=O)CC6)C5)CC4)ncc3Cl)ccc2n(C(C)C)c1=O` (some centres unmarked) [Compound A, 2-({6-[(5-chloro-2-{4-[(1r,3r)-3-{4-[2-(2,6-dioxopiperidin-3-yl)-4-fluoro-1-oxo-2,3-dihydro-1H-isoindol-5-yl]piperidin-1-yl}cyclobutoxy]piperidin-1-yl}pyrimidin-4-yl)amino]-2-oxo-1-(propan-2-yl)-1,2-dihydroquinolin-3-yl}oxy)-N-methylacetamide], the “Tumor lysate BCL6 protein level” value in experiment [1] (bid×23, 16-hours post-last dose (FIG. 7C)) is given as “dose-dependent degradation of BCL6 protein”; in experiment [1] (single oral dose, time-course (FIG. 5)), “degraded BCL6 protein rapidly”. Moreover, the “Time BCL6 protein was kept down” value in experiment [1] (single oral dose (FIG. 5)) is “up to 36 hours”. For the same compound, in experiment [2], the “DLBCL cell growth (antiproliferative effect)” value is reported as “significant decrease on DLBCL cells growth”. Moreover, the BCL6 protein degradation result in experiment [3] (ABC DLBCL cell lines SU-DHL-2, OCI-Ly10, 24 hours (FIG. 2C)) is listed as “potent BCL6 protein degradation”; in experiment [3] (GCB DLBCL cell lines Farage, SU-DHL-4, SU-DHL-6, OCI-Ly7, 24 hours (FIG. 2B)), “potent BCL6 protein degradation”; in experiment [3] (OCI-Ly1 cell line, 24-hours treatment, compared to E3-binding deficient analogue (FIG. 2A)), “potent BCL6 protein degradation”. The Tumor growth result in experiment [4] is listed as “inhibits the tumor growth”.
